Source: EP0303437A2, “Platinum triamine compounds containing nucleotides or nucleosides as antitumor agents” (ENGELHARD CORPORATION, priority 1987, dated 1989)
Values joined by “and” are separate entries in the source; they are usually repeats but may differ in a detail not shown here. Equal entries are not always repeated.

Legend:
Sarcoma 180 Ascites = Sarcoma 180 Ascites (S180a) antitumor screening; type: in vivo, Female CFW mice; details: for %ILS: ILS ≧ 50% indicates activity; for Surv: survivors per group of 6 mice at twice the MST of controls
Procedure: (§1) Each of the compounds was evaluated in the Sarcoma 180 Ascites screen and at least some of the compounds were also evaluated in the L1210 Leukemia tumor models.
(§2) L1210 screening was conducted according to a published method. […] Female CDF₁ mice (16 - 22 g) were implanted with 1 x 10⁶ tumor cells ip on day zero. Compounds were administered in 0.5 mL water ip on day one. Groups of 6 mice were used for each dose. A control group of mice received only tumor and 0.5 mL water. A positive control group received tumor and 8 mg/kg cisplatin in 0.5 mL 0.15 M NaCl. The test was terminated after three times the mean survival time (MST) of the control group, surviving mice were counted as dying on that day. Activity was determined based on the percent increase in MST of test mice over controls (%ILS). […] The tumor line was maintained through weekly transfer of 5 x 10⁴ cells in DBA/2 mice.
Female CFW mice (18 - 25 g) were implanted with 2 x 10⁶ cells ip on day zero. Compounds were administered in 0.5 mL water ip on day one. Groups of 6 mice were used for each test dose as well as controls as defined above. The test was run for twice the MST of the control group, with survivors counted as dying on that day. An ILS of ≧ 50% indicates activity. The tumor line was maintained through weekly transfer of 4 x 10⁶ cells in CFW mice.

L1210 Leukemia = L1210 Leukemia antitumor screening; type: in vivo, Female CDF₁ mice; details: for %ILS: ILS ≧ 25% represents activity; for Surv: survivors per group of 6 mice at three times the MST of controls
Procedure: as §1, §2

[1] = Dose 10 mg/kg ip in water on day one
[2] = Dose 20 mg/kg ip in water on day one
[3] = Dose 40 mg/kg ip in water on day one
[4] = Dose 80 mg/kg ip in water on day one
[5] = Dose 160 mg/kg ip in water on day one
[6] = Dose 320 mg/kg ip in water on day one
[7] = 8 mg/kg cisplatin in 0.5 mL 0.15 M NaCl, survivors per 6 mice, one value per experiment

Molecule	%ILS (Sarcoma 180 Ascites; [1]) [%]	Surv (Sarcoma 180 Ascites; Dose 10 mg/kg ip)	%ILS (Sarcoma 180 Ascites; [2]) [%]	Surv (Sarcoma 180 Ascites; Dose 20 mg/kg ip)	%ILS (Sarcoma 180 Ascites; [3]) [%]	Surv (Sarcoma 180 Ascites; Dose 40 mg/kg ip)	%ILS (Sarcoma 180 Ascites; [4]) [%]	Surv (Sarcoma 180 Ascites; Dose 80 mg/kg ip)	%ILS (Sarcoma 180 Ascites; [5]) [%]	Surv (Sarcoma 180 Ascites; Dose 160 mg/kg ip)	%ILS (Sarcoma 180 Ascites; [6]) [%]	Surv (Sarcoma 180 Ascites; Dose 320 mg/kg ip)	%ILS (L1210 Leukemia; [1]) [%]	Surv (L1210 Leukemia; Dose 10 mg/kg ip)	%ILS (L1210 Leukemia; [2]) [%]	Surv (L1210 Leukemia; Dose 20 mg/kg ip)	%ILS (L1210 Leukemia; [3]) [%]	Surv (L1210 Leukemia; Dose 40 mg/kg ip)	%ILS (L1210 Leukemia; [4]) [%]	Surv (L1210 Leukemia; Dose 80 mg/kg ip)	other results
N.N.Nc1ccn(C2OC(CO)C(O)C2O)c(=O)n1.O=[N+]([O-])[O-].[Cl-].[Pt+2] [cis-[Pt(NH₃)₂(1-β-D-arabinofuranosylcytosine)Cl]NO₃]	-12	0/6	-3	0/6	2	0/6	42	2/6	51	1/6	45	2/6	-22	0/6	-8	0/6	0	0/6	6	0/6	%ILS (L1210 Leukemia; [5]): 10%; Surv (L1210 Leukemia; Dose 160 mg/kg ip): 0/6; %ILS (L1210 Leukemia; [6]): 10%; Surv (L1210 Leukemia; Dose 320 mg/kg ip): 0/6
N.N.Nc1ccn(C2CC(O)C(CO)O2)c(=O)n1.[Cl-].[Cl-].[Pt+2] (stereo not drawn) [cis-[Pt(NH₃)₂(2′-deoxycytidine)Cl]Cl]	10	0/6	34	0/6	61	2/6	85	3/6	76	4/6	51	1/6	–	–	–	–	–	–	–	–	–
Nc1ccn(C2OC(CO)C(O)C2O)c(=O)[n+]1[Pt]([NH2])([NH2])[Cl].O=[N+]([O-])[O-] (stereo not drawn) [cis-[Pt(NH₃)₂(cytidine)Cl]NO₃]	6	0/6	1	0/6	-4	0/6	-7	0/6	8	0/6	30	0/6	–	–	–	–	–	–	–	–	–
Nc1nc2c(c(=O)[nH]1)[n+]([Pt]([NH2])([NH2])[Cl])cn2C1OC(CO)C(O)C1O.O=[N+]([O-])[O-] (stereo not drawn) [cis-[Pt(NH₃)₂(guanosine)Cl]NO₃]	2	0/6	15	1/6	23	0/6	16	1/6	79	3/6	-45	1/6	-24	0/6	-4	0/6	-4	0/6	2	0/6	%ILS (L1210 Leukemia; [5]): 8%; Surv (L1210 Leukemia; Dose 160 mg/kg ip): 0/6; %ILS (L1210 Leukemia; [6]): -26%; Surv (L1210 Leukemia; Dose 320 mg/kg ip): 0/6
cis-[Pt(NH₃)₂(2′-deoxycytidine)Cl]NO₃	–	–	–	–	–	–	–	–	–	–	–	–	12	0/6	23	0/6	26	0/6	44	0/6	%ILS (L1210 Leukemia; [5]): 41%; Surv (L1210 Leukemia; Dose 160 mg/kg ip): 0/6; %ILS (L1210 Leukemia; [6]): 59%; Surv (L1210 Leukemia; Dose 320 mg/kg ip): 0/6
cis-[Pt(NH₃)₂(2′-deoxyguanosine)Cl]Cl	2	0/6	15	1/6	76	4/6	88	4/6	85	4/6	6	2/6	–	–	–	–	–	–	–	–	–
cis-[Pt(NH₃)₂Cl₂] [Positive Control, reference compound]	–	–	–	–	–	–	–	–	–	–	–	–	–	–	–	–	–	–	–	–	Positive Control %ILS (Sarcoma 180 Ascites; 8 mg/kg cisplatin in 0.5 mL 0.15 M NaCl, one value per experiment, run with the compound of that table section): 86% and 54% and 82% and 59%; Positive Control Surv (Sarcoma 180 Ascites; [7]): 4/6 and 0/6 and 3/6; Positive Control Surv (L1210 Leukemia; [7]): 0/6
